What was measured:
DLD-1 cancer cells = test: MTS assay, DLD-1 cells; assay type: cell-based; parameters: concentration or dose not given beside the values
Experimental: (§1) Cells were maintained at 37° C., 5% CO2 in DMEM media supplemented with 1% fetal bovine serum, penicillin/streptomycin and fungizone (Invitrogen). Cells were seeded into 96-well tissue culture plates at 3000 per well and cultured at 37° C. for 18 hours. Test compounds were dissolved and diluted to 300× in DMSO then diluted 1:40 in DMEM. Cells were incubated with test compounds for 72 hours followed by incubation with tetrazolium compound (3-(4,5-dimethylthiazol-2-yl)-5-(3-carboxymethoxyphenyl)-2-(4-sulfophenyl)-2H-tetrazolium, inner salt; MTS) and the electron coupling reagent, phenazine methosulfate (PMS) for 4 hours. […] The ability of compounds to inhibit cell growth in this assay is correlated with the reduction of dehydrogenase enzyme activity found in metabolically active cells. The measurement of the absorbance of the formazan was assessed using a Victor (Perkin Elmer) microplate reader at 492 nm. The calculated IC50 value is the concentration of the test compound that causes a 50% decrease in the absorbance. Percent inhibition by representative compounds of the present invention in MDA-MB231 and DLD-1 cancer cells is shown in Table 4.

MDA-MB-231 cancer cells = test: MTS assay, MDA-MB-231 cells; assay type: cell-based; parameters: concentration or dose not given beside the values
Experimental: as §1

FGFR2 (N549H) = biological target: T1, FGFR2 (N549H) (Homo sapiens, UniProt P21802, N549H); test: FGFR2 kinase activity assay (fluorescent ELISA); assay type: biochemical; conditions: 30 μM compound
T1 construct: purchased Millipore 14-742
T1 sequence (P21802 22-821 N549H): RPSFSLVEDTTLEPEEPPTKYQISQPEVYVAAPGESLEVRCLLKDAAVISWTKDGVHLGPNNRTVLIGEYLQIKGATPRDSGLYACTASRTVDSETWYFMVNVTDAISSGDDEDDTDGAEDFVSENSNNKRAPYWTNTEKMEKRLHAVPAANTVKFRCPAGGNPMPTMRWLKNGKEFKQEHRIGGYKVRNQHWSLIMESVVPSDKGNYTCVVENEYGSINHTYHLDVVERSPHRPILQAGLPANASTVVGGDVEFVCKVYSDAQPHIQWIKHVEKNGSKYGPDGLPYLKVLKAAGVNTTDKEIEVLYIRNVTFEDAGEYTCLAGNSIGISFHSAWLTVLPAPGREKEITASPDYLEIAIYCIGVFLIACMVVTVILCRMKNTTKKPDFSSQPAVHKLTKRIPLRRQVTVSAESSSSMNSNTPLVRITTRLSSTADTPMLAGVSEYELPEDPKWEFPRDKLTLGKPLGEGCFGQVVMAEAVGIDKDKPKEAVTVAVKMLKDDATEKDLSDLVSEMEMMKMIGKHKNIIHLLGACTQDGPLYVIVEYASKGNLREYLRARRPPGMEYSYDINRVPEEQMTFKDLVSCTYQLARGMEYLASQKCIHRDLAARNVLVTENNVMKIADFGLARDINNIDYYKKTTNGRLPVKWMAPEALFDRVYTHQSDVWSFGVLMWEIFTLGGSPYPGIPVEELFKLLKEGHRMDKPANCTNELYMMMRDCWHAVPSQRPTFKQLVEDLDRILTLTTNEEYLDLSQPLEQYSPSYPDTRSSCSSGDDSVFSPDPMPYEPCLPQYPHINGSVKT
Experimental: A fluorescent ELISA assay was developed to identify and characterize inhibitors of FGFR2 kinase. This heterogeneous assay utilized a biotinylated peptide with a tyrosine motif as a substrate and an anti-phospho-tyrosine antibody to measure phosphorylation of the substrate. The reaction was initiated by adding a test compound, 37 uM Pyk2 substrate (Midwest Biotech, cat. #MBT2383), 12.5 uM ATP (Roche, cat. #11 140 965 001), and 0.5 uM FGFR2 enzyme (Millipore, cat. #14-742) sequentially to a non-binding polypropylene V-well plate. All reagents were in assay buffer consisting of: 50 mM Tris-HCL, 0.02 mg/mL BSA, 10 mM MgCl2, 0.1 mM Na3VO4, 1 mM EGTA, […], 0.01% NP-40, 2 mM DTT, 10% Glycerol. The reaction was incubated for 60 minutes. As the reaction proceeded, FGFR2 phosphorylated tyrosines in the peptide. The reaction mixture was then moved to a blocked streptavidin coated Nunc Maxisorb plate (coated with 100 ng streptavidin from Pierce (cat #15-124) per well) allowing for the capture of the biotinylated peptide. Peptide was captured for 30 minutes at room temperature, the phosphorylation of peptide continues during this phase. The reaction was stopped by washing the Streptavidin plate 6 times with TBST. Phosphorylated peptide was detected by adding anti-phospho tyrosine antibody (purchased from Cell Signaling, cat. #9411, diluted 1:3000), unbound antibody was removed by washing 6 times with TBST. Secondary detection was performed using Alkaline Phosphatase tagged goat anti-mouse antibody (purchased from Pierce, cat. #31320, diluted 1:4000) for one hour. Unbound secondary antibody was removed by washing 6 times with TBST.
The fluorescent readout was initiated by the addition of Promega Attophos substrate (purchased from Promega; Kit catalog number: S1000, dilution=6 mg/10 mL), which when dephosphorylated by Alkaline phosphatase emitted a fluorescent signal of […] when excited by a signal […]. This reading was done on the Perkin Elmer Envision system. […] The signal was directly proportional to the activity of FGFR2 and compound inhibition of FGFR2 was monitored by a decrease in signal.

Row | inhibition at 30 µM (FGFR2 (N549H)) | SMILES | DLD-1, MTS, 72 hours (% Inhibition) (DLD-1 cancer cells) | MDA-MB-231, MTS, 72 hours (% inhibition) (MDA-MB-231 cancer cells)
1 | 57.2% | CCN(c1cc(O)ccc1C)c1nccn2c(NC(=O)OC(C)C)nnc12 [Compound 64, isopropyl {8-[ethyl(5-hydroxy-2-methylphenyl)amino][1,2,4]triazolo[4,3-a]pyrazin-3-yl}carbamate] | 26% | 51%
2 | 80.6% | COc1ccccc1CCNc1nccn2c(NC(=O)OC(C)C)nnc12 [Compound 58, isopropyl (8-{[2-(2-methoxyphenyl)ethyl]amino}[1,2,4]triazolo[4,3-a]pyrazin-3-yl)carbamate] | 10% | 59%
3 | 51% | COc1ccccc1CNc1nccn2c(NC(=O)OC(C)C)nnc12 [Compound 15, isopropyl {8-[(2-methoxybenzyl)amino][1,2,4]triazolo[4,3-a]pyrazin-3-yl}carbamate] | 98% | 83%
4 | 95.1% | CC(C)OC(=O)Nc1nnc2c(Nc3ccc(Br)cc3)nccn12 [Compound 52, isopropyl {8-[(4-bromophenyl)amino][1,2,4]triazolo[4,3-a]pyrazin-3-yl}carbamate] | 97% | 98%
5 | 100% | CC(C)OC(=O)Nc1nnc2c(NCc3ccc(C(C)(C)C)cc3)nccn12 [Compound 22, isopropyl {8-[(4-tert-butylbenzyl)amino][1,2,4]triazolo[4,3-a]pyrazin-3-yl}carbamate] | 98% | 99%
6 | 65.2% | CC(C)OC(=O)Nc1nnc2c(N3CCC(n4c(=O)[nH]c5cc(Cl)ccc54)CC3)nccn12 [Compound 82, isopropyl {8-[4-(5-chloro-2-oxo-2,3-dihydro-1H-benzimidazol-1-yl)piperidin-1-yl][1,2,4]triazolo[4,3-a]pyrazin-3-yl}carbamate] | 97% | 92%
7 | 96.9% | CC(C)OC(=O)Nc1nnc2c(NCc3cccc(C(F)(F)F)c3)nccn12 [Compound 81, isopropyl (8-{[3-(trifluoromethyl)benzyl]amino}[1,2,4]triazolo[4,3-a]pyrazin-3-yl)carbamate] | 98% | 99%
8 | 88.8% | CC(C)OC(=O)Nc1nnc2c(NCc3cccc(F)c3)nccn12 [Compound 86, isopropyl {8-[(3-fluorobenzyl)amino][1,2,4]triazolo[4,3-a]pyrazin-3-yl}carbamate] | 97% | 98%
9 | 78.3% | COc1ccccc1Nc1nccn2c(NC(=O)OC(C)C)nnc12 [Compound 39, isopropyl {8-[(2-methoxyphenyl)amino][1,2,4]triazolo[4,3-a]pyrazin-3-yl}carbamate] | 97% | 97%
10 | 75.7% | CCN(c1ccccc1C)c1nccn2c(NC(=O)OC(C)C)nnc12 [Compound 63, isopropyl {8-[ethyl(2-methylphenyl)amino][1,2,4]triazolo[4,3-a]pyrazin-3-yl}carbamate] | 98% | 76%
11 | 55.5% | COc1ccc(Cl)cc1Nc1nccn2c(NC(=O)OC(C)C)nnc12 [Compound 7, isopropyl {8-[(5-chloro-2-methoxyphenyl)amino][1,2,4]triazolo[4,3-a]pyrazin-3-yl}carbamate] |  | 
12 | 50% | CN(C)c1ccc(Nc2nccn3c(N)nnc23)cc1 [Compound 116, N^8-[4-(dimethylamino)phenyl][1,2,4]triazolo[4,3-a]pyrazine-3,8-diamine] |  | 
13 | 51.4% | CC(C)OC(=O)Nc1nnc2c(NCCc3ccc(Oc4ccccc4)cc3)nccn12 [Compound 36, isopropyl (8-{[2-(4-phenoxyphenyl)ethyl]amino}[1,2,4]triazolo[4,3-a]pyrazin-3-yl)carbamate] |  | 

More lines, now with the values behind:

Row | SMILES | inhibition at 30 µM (FGFR2 (N549H)) | DLD-1, MTS, 72 hours (% Inhibition) (DLD-1 cancer cells) | MDA-MB-231, MTS, 72 hours (% inhibition) (MDA-MB-231 cancer cells)
14 | Cc1ccccc1Nc1nccn2c(N)nnc12 [Compound 157, N^8-(2-methylphenyl)[1,2,4]triazolo[4,3-a]pyrazine-3,8-diamine] | 54.6% | 97% | 98%
15 | Cc1ccnc(N(Cc2ccccc2)c2nccn3c(NC(=O)OC(C)C)nnc23)c1 [Compound 8, Isopropyl {8-[benzyl(4-methylpyridin-2-yl)amino][1,2,4]triazolo[4,3-a]pyrazin-3-yl}carbamate] |  | 99% | 94%
16 | Nc1nnc2c(NCCc3ccccc3)nccn12 [Compound 136, N^8-(2-phenylethyl)[1,2,4]triazolo [4,3-a]pyrazine-3,8-diamine] |  | 97% | 76%
17 | CC(C)OC(=O)Nc1nnc2c(NCCC3CCCN3C)nccn12 (stereo not shown) [Compound 21, Isopropyl (8-{[2-(1-methylpyrrolidin-2-yl)ethyl]amino}[1,2,4]triazolo[4,3-a]pyrazin-3-yl)carbamate] |  | 58% | 69%
18 | COc1cccc(Nc2nccn3c(NC(=O)OC(C)C)nnc23)c1 [Compound 5] |  | 96% | 98%
19 | COc1ccc(CCNc2nccn3c(N)nnc23)cc1 [Compound 117, N^8-[2-(4-methoxyphenyl)ethyl][1,2,4] triazolo[4,3-a]pyrazine-3,8-diamine] |  | 97% | 99%
20 | Cc1ccc(CCNc2nccn3c(N)nnc23)cc1 [Compound 90, N^8-[2-(4-methylphenyl)ethyl][1,2,4]triazolo[4,3-a]pyrazine-3,8-diamine] | 60.8% | 89% | 81%
21 | Nc1nnc2c(NCCc3ccc(Cl)cc3)nccn12 [Compound 115, N^8-[2-(4-chlorophenyl)ethyl][1,2,4]triazolo[4,3-a]pyrazine-3,8-diamine] | 71.6% | 98% | 99%
22 | Nc1nnc2c(Nc3cc(Cl)ccc3Cl)nccn12 [Compound 160, N^8-(2,5-dichlorophenyl)[1,2,4]triazolo[4,3-a]pyrazine-3,8-diamine] | 68.6% | 53% | 81%
23 | Nc1nnc2c(NCc3ccccc3F)nccn12 [Compound 153, N^8-(2-fluorobenzyl)[1,2,4]triazolo[4,3-a]pyrazine-3,8-diamine] | 72.9% |  | 
24 | Nc1nnc2c(NCc3ccccc3C(F)(F)F)nccn12 [Compound 143, N^8-[2-(trifluoromethyl)benzyl][1,2,4]triazolo[4,3-a]pyrazine-3,8-diamine] | 73.2% |  | 
25 | Nc1nnc2c(Nc3ccccc3F)nccn12 [Compound 121, N^8-(2-fluorophenyl)[1,2,4]triazolo[4,3-a]pyrazine-3,8-diamine] | 65.7% |  | 
